Assay: gradient 5% acetonitrile 3 min, to 50% in 2 min, to 85% in 15 min, held 3 min, 100 µL/min
Details: column: Zorbax Extend-C18 2.1 x 50 mm; eluents: water / acetonitrile, 0.1% formic acid
Outline: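 A Zorbax Extend-C18 column (2.1 × 50 mm, 1.8 μm) run at 100 μL/min with water and acetonitrile, both containing 0.1% formic acid, separated mixtures of ~100 pure standards. The HPLC was coupled to a quadrupole time-of-flight mass spectrometer operated in positive and negative ionization mode, with dead and dwell volumes of 40 μL and 900 μL. Each retention time was taken from a computationally picked adduct peak that was then manually inspected.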

## CCOc1ccc(Nc2c3ccccc3nc3ccccc23)cc1
  RP-LC retention time: 795 s

## Cc1cnc(C2CN(C(=O)c3ccnn3C)C2)n1CC1CC1
  RP-LC retention time: 568 s

## Cc1nccn1Cc1nc(-c2ccc(F)cc2)no1
  RP-LC retention time: 614 s

## CN(C(=O)c1cc2c(=O)n(C)c(=O)n(C)c2s1)c1cccc(Cl)c1
  RP-LC retention time: 827 s

## Cc1ccc(C)c(NC(=O)N2C[C@@H](F)C[C@H]2C(=O)N2CCc3ccccc3C2)c1
  RP-LC retention time: 836 s

## O=C(NCc1ccco1)C1CCCN(c2nnc3ccc(Cl)cn23)C1 (stereo not drawn)
  RP-LC retention time: 687 s

## Cc1ccc(C(=O)NC2CCN(c3cc(-c4cccs4)[nH]n3)C2)cc1 (stereo not drawn)
  RP-LC retention time: 733 s

## Nc1c2ccccc2nc2ccccc12
  RP-LC retention time: 637 s

## O=C(Cn1cnc2nc(N3CCC(C(=O)NC4CC4)CC3)sc2c1=O)NCc1ccco1
  RP-LC retention time: 610 s

## COc1ccc(OC)c(S(=O)(=O)N2[C@H]3CC[C@@H]2c2cnc(-c4ccccc4)nc2C3)c1
  RP-LC retention time: 1020 s

## CCc1noc(NC(C)=O)c1-c1ccc(OC)c(S(=O)(=O)Nc2ccccc2)c1
  RP-LC retention time: 764 s

## CCn1ncn2cc(S(=O)(=O)Nc3cc(C)ccc3C)cc2c1=O
  RP-LC retention time: 937 s

## COc1cc([C@@H]2c3cc4c(cc3[C@H](O)[C@@H](CO)[C@@H]2C(=O)N2CCc3ccccc32)OCO4)cc(OC)c1OC
  RP-LC retention time: 771 s

## O=C(Nc1ccc(S(=O)(=O)N2CCOCC2)cc1)c1ccc(Br)s1
  RP-LC retention time: 858 s

## O=C(Nc1ccccc1)N1CC(c2nc(CCOCC3CCCC3)no2)C1
  RP-LC retention time: 944 s

## Cc1ccc(-c2nc(N3CCCCCC3)c3ccccc3n2)cc1
  RP-LC retention time: 833 s

## CCN1CCN(CCNC(=O)c2sc3ncccc3c2-n2c(C)ccc2C)CC1
  RP-LC retention time: 574 s

## Cc1nc(-c2ccc3c(c2)CCN3C(=O)c2ccc3c(c2)OCO3)cs1
  RP-LC retention time: 951 s

## CC(C)n1cnc(S(=O)(=O)N2CCCC(C(=O)Nc3ccc(F)cc3)C2)c1 (stereo not drawn)
  RP-LC retention time: 765 s

## CCc1nc(-c2csc(S(=O)(=O)N3CCCC(C(=O)Nc4ccc(C)c(Cl)c4)C3)c2)no1 (stereo not drawn)
  RP-LC retention time: 1180 s

## CCc1ccccc1NC(=O)c1c(O)c2cccnc2n(-c2ccccc2)c1=O
  RP-LC retention time: 1290 s

## O=C(NC1CCCCCCC1)C1CCN(C(=O)c2ncn3c2COC(c2ccc(F)cc2)C3)CC1 (stereo not drawn)
  RP-LC retention time: 852 s

## CSc1ccc(Cl)c(C(=O)Nc2cccn3c(C4CCC4)nnc23)c1
  RP-LC retention time: 911 s

## O=c1ccc(-c2nc(-c3ccc4c(c3)OCO4)no2)cn1Cc1cc(=O)n2ccccc2n1
  RP-LC retention time: 740 s

## CCn1c(=O)c(N2CCN(C(=O)Nc3cccc(SC)c3)CC2)nc2ccccc21
  RP-LC retention time: 928 s

## O=C(NC1CC1)c1ccc(OCC2CCCN(C(=O)c3ccc(F)c(F)c3)C2)cc1 (stereo not drawn)
  RP-LC retention time: 820 s

## O=C(Cn1nc2nc(Nc3ccc(F)cc3)ccn2c1=O)N1CCCC1
  RP-LC retention time: 621 s

## CCc1cc(=O)n(CC(=O)NCc2ccc(F)cc2)c(N)n1
  RP-LC retention time: 793 s

## Cc1ccc(NC(=O)N2CCc3nc(-c4ccccc4)ncc3C2)cc1C
  RP-LC retention time: 995 s

## CC(C)(C)C(=O)C(Oc1ccc(Cl)cc1)n1ccnc1 (stereo not drawn)
  RP-LC retention time: 780 s

## O=C(Nc1cnc(N2CCCC2)nc1)c1ccsc1
  RP-LC retention time: 658 s

## Cn1nc(C(=O)N2CCCC2)c2c1CCN(C(=O)Nc1ccccc1)C2
  RP-LC retention time: 704 s

## Cc1nc(N2CCN(c3ccccn3)CC2)nc2c1C(=O)CC(c1ccccc1)C2 (stereo not drawn)
  RP-LC retention time: 757 s

## CCC(c1cccs1)N1C(=O)[C@H]2CN(S(=O)(=O)c3ccc(F)c(C)c3)C[C@H]2C1=O (stereo partly drawn)
  RP-LC retention time: 978 s

## Cc1ccccc1Cn1cc(-c2ccncc2)cc1C(=O)NCc1cccnc1
  RP-LC retention time: 581 s

## COc1ccc(-c2cc3c4nnc(CCC(=O)N5CCCC5)n4ccn3n2)cc1
  RP-LC retention time: 686 s

## CCC1CCCCN1CCNC(=O)c1sc2cccc(F)c2c1OC (stereo not drawn)
  RP-LC retention time: 700 s

## CCCn1cc(C(=O)NCc2ccncc2)c2cccnc21
  RP-LC retention time: 572 s

## COCc1cc(=O)n2c(n1)N(Cc1c(C)noc1C)CC2
  RP-LC retention time: 626 s

## COc1ccc(CNC(=O)c2cc(-c3ccccc3)ns2)cc1
  RP-LC retention time: 905 s

## COc1ccc(CNC(=O)CN2C(=O)NC3(CCC(C(C)(C)C)CC3)C2=O)cc1OC (stereo not drawn)
  RP-LC retention time: 863 s

## CC(C)c1nnc(C2CCN(C(=O)c3ccc4nc[nH]c4c3)CC2)o1
  RP-LC retention time: 545 s

## C=CCNC(=O)Cc1cn2cc(Br)ccc2n1
  RP-LC retention time: 557 s

## CCC(C)NC(=O)c1nnn(Cc2cccc(Cl)c2)c1-n1cccc1 (stereo not drawn)
  RP-LC retention time: 1040 s

## C[C@@H]1C/C=C/C=C/C=C/C=C/[C@H](O[C@@H]2O[C@H](C)[C@@H](O)[C@H](N)[C@@H]2O)C[C@@H]2O[C@](O)(C[C@@H](O)C[C@H]3O[C@@H]3/C=C/C(=O)O1)C[C@H](O)[C@H]2C(=O)O
  RP-LC retention time: 686 s

## Cc1cc(-c2nnc(-c3ccc(F)cc3)o2)c(C)n1CC(=O)Nc1ccccc1F
  RP-LC retention time: 959 s

## CCN1c2ccc(C)cc2C(=O)NC12CCN(C(=O)Cc1ccccc1)CC2
  RP-LC retention time: 820 s

## COc1ccc(-c2nnc(-c3ccc(C)c(S(=O)(=O)NC(C)(C)C)c3)o2)cc1OC
  RP-LC retention time: 941 s

## Cc1cccc(-n2c(=O)c3sccc3n(Cc3nc(-c4ccccc4)no3)c2=O)c1
  RP-LC retention time: 1010 s

## COc1ccc2c(c1)C1(CCN(C(=O)c3ccc(C)c(F)c3)C1)C(=O)N2 (stereo not drawn)
  RP-LC retention time: 745 s

## COCCCNC(=O)C1c2cc(OC)c(OC)cc2C(=O)N(C)C1c1ccc(SC)cc1 (stereo not drawn)
  RP-LC retention time: 607 s

## COc1ccc(C2CC(=O)N(c3ccc(Cl)cc3)C(=O)C2)cc1
  RP-LC retention time: 942 s

## Cc1ccc(NC(=O)N2C[C@@H](F)C[C@H]2C(=O)N2CCCCC2)c(Cl)c1
  RP-LC retention time: 779 s

## Cc1cc(C)c(S(=O)(=O)N2CCc3nn(CC(C)C)c(=O)n3CC2)c(C)c1
  RP-LC retention time: 664 s

## CCOc1ccc(NC(=O)N2CCC(C(=O)NCc3csc(C)n3)CC2)cc1
  RP-LC retention time: 652 s

## COc1cc(NC(=O)CCl)ccc(=O)c1
  RP-LC retention time: 631 s

## Cc1cc(=O)n(CC(=O)Nc2ccc3c(c2)OCO3)c(-c2ccccc2)n1
  RP-LC retention time: 941 s

## Cc1nn(-c2ccccc2)c2c1N(CCCC(=O)NCCN(C)C)C(=O)CS2
  RP-LC retention time: 602 s

## CCc1onc(C)c1C1CCCN1C(=O)Nc1ccc(OC)cc1OC (stereo not drawn)
  RP-LC retention time: 796 s

## O=C(CN1C(=O)CCCc2cc(S(=O)(=O)N3CCCCC3)ccc21)NC1CCCCCC1
  RP-LC retention time: 942 s

## Cc1cc(-c2nnc(-c3ccccc3)o2)c(C)n1CC(=O)NCC1CCCO1 (stereo not drawn)
  RP-LC retention time: 770 s

## c1ccc(-c2cc(NCc3ccccn3)n3ncc(-c4ccccc4)c3n2)cc1
  RP-LC retention time: 1180 s

## C[C@@H](NC(=O)c1ncnc(N)c1Cl)c1ncc(C(=O)Nc2cc(C(F)(F)F)c(Cl)cn2)s1
  RP-LC retention time: 913 s

## O=C(NCCC1=CCCCC1)C(=O)NCC1CCN(S(=O)(=O)C2CC2)CC1
  RP-LC retention time: 826 s

## Cc1ccc(NC(=O)C2CCCN(c3nc4c(s3)c(C)nn4-c3ccccc3)C2)c(C)c1 (stereo not drawn)
  RP-LC retention time: 1200 s

## CC(C)C(=O)NCCC1CCN(C(=O)Nc2cc(F)ccc2F)CC1
  RP-LC retention time: 742 s

## Cc1ccc(Nc2c(-c3ccc(N(C)C)cc3)nc3cc(C)ccn23)cc1
  RP-LC retention time: 828 s

## O=C(O)CCCC(=O)Nc1nc(-c2ccccc2)c(-c2ccccc2)s1
  RP-LC retention time: 893 s

## CCOc1ccccc1N1C=C(C(=O)OC)S(=O)(=O)c2ccccc21
  RP-LC retention time: 849 s

## CC1CCN(S(=O)(=O)c2ccc3nc(N4CCN(C(=O)c5ccco5)CC4)ccc3c2)CC1
  RP-LC retention time: 852 s

## O=C(Nc1ccccc1F)N1CCC(CCNC(=O)C2(c3ccccc3)CC2)CC1
  RP-LC retention time: 889 s

## O=C(CNc1ccccc1)Nc1nc(-c2ccccc2)cs1
  RP-LC retention time: 637 s

## O=C(N[C@@H]1CN(C2CCOCC2)C[C@H]1CO)c1ccc2c(c1)OCO2
  RP-LC retention time: 566 s

## CCN1CCN(C(=O)c2ccc(S(=O)(=O)c3ccccc3)s2)CC1
  RP-LC retention time: 617 s

## CCOC(=O)N1CCN(C(=O)CSc2ccc(-c3ccco3)nn2)CC1
  RP-LC retention time: 661 s

## O=C([C@@H]1C[C@H](F)CN1C(=O)Nc1ccccc1)N1CCCCC1
  RP-LC retention time: 653 s

## Cc1ccccc1CC(=O)NCc1ccc2c(c1)ncn2C(C)C
  RP-LC retention time: 618 s

## O=S(=O)(NC1CCCN(c2cc(-c3ccncc3)[nH]n2)C1)c1ccc(Cl)cc1 (stereo not drawn)
  RP-LC retention time: 579 s

## CCc1nc2ccccc2n1CC(O)COc1ccc(C)c(C)c1 (stereo not drawn)
  RP-LC retention time: 696 s

## CC(C)CCNc1ccc2nncn2n1
  RP-LC retention time: 786 s

## Cc1ccc(N(C)S(=O)(=O)c2ccc3c(c2)CCCC(=O)N3)cc1C
  RP-LC retention time: 854 s

## CN1C(=O)c2cc(S(=O)(=O)Nc3ccccc3)ccc2Oc2cccnc21
  RP-LC retention time: 862 s

## CCCN1CCCCc2cc(C(=O)NC(C)COC)sc21 (stereo not drawn)
  RP-LC retention time: 907 s

## Cc1ccc(F)c(NS(=O)(=O)c2cc3n(c2)CCN(C)C3=O)c1
  RP-LC retention time: 696 s

## CCOc1ccc(CN2CCC(NC(=O)Cc3cccnc3)C2)cn1 (stereo not drawn)
  RP-LC retention time: 731 s

## O=S(=O)(NCc1nc(-c2cccc(-c3ccn[nH]3)c2)no1)c1ccc(F)cc1
  RP-LC retention time: 765 s

## Cn1c(=O)c2nc(S(=O)(=O)CCC(=O)Nc3cc(Cl)ccc3F)n(C)c2n(C)c1=O
  RP-LC retention time: 771 s

## COc1ccc(C)cc1NC(=O)N1CCN(c2ccc(=O)n(-c3ccc(C)cc3)n2)CC1
  RP-LC retention time: 915 s
